US10329270B2, “Heteroaryl compounds as BTK inhibitors and uses thereof” (Merck Patent GmbH, priority 2013, dated 2019)
Read-outs that look alike come from different tables or passages of the source.

Biological target: T1, full-length human BTK (Homo sapiens, UniProt Q06187)
T1 construct: 2.5× stocks of full-length human BTK (08-080); purchased CarnaBio USA, Inc., Natick, Mass; 08-080
Assay: Assay A: BTK IC50 Enzyme Assay (microfluidic off-chip mobility shift kinase assay)
Assay type: biochemical
How it was run: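 Off-chip microfluidic mobility shift assay with full-length human BTK; phosphorylated and unphosphorylated peptide substrate were separated by charge/mass on a LabChip 3000.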

[1] = full-length human BTK, kinKDR peptide substrate, incubated 90 min at 27 C, read-out: Assay A (Time Dependent BTK Enzyme Assay IC50)

T1 sequence (Q06187 whole entry): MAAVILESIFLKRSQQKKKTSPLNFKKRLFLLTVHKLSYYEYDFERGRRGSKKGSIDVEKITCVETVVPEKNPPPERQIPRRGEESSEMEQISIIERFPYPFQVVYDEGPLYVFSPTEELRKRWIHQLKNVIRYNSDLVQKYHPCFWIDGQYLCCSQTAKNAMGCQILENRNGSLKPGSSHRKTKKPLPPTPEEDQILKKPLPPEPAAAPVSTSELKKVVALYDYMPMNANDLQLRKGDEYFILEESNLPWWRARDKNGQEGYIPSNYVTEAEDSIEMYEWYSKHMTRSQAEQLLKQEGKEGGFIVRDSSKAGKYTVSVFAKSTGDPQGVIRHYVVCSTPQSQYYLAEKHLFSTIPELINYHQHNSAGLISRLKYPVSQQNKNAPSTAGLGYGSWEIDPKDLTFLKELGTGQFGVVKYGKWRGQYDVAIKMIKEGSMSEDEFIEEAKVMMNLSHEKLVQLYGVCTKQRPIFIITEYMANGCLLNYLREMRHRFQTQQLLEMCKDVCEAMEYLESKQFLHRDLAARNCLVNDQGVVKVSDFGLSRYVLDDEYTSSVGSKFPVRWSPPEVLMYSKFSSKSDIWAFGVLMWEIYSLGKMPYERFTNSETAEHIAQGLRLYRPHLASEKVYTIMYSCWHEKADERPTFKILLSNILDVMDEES

| Compound | IC50 [1] | IC50 |
| --- | --- | --- |
| C=CC(=O)NCc1cncc(-c2ccc(C(N)=O)c(Oc3ccc(Oc4ccccc4)cc3)n2)c1 [Compound 84, 5′-(acrylamidomethyl)-6-(4-phenoxyphenoxy)-[2,3′-bipyridine]-5-carboxamide] | < 0.1 µM | – |
| C=CC(=O)N1CCC2(CC(Nc3ncc(C(N)=O)c(Oc4ccc(Oc5ccccc5)cc4)n3)C2)C1 (stereo not shown) [Compound 182, 2-((6-acryloyl-6-azaspiro[3.4]octan-2-yl)amino)-4-(4-phenoxyphenoxy)pyrimidine-5-carboxamide] | 1 to 5 µM | – |
| C=CC(=O)N1CCN(c2ccc(C(N)=O)c(Nc3ccc(C)nc3)n2)CC1 [Compound 34] | < 0.1 µM | – |
| C=CC(=O)N[C@H]1CCN(c2ncnc(C(N)=O)c2Cl)C1 [Compound 172, 6-((S)-3-Acryloylamino-pyrrolidin-1-yl)-5-chloro-pyrimidine-4-carboxylic acid amide] | > 5 µM | – |
| C=CC(=O)NCc1ccc(-c2ccc(C(N)=O)c(Oc3ccc(Oc4ccccc4)cc3)n2)cc1 [Compound 89, 6-(4-(acrylamidomethyl)phenyl)-2-(4-phenoxyphenoxy)nicotinamide] | 0.1 to 1 µM | – |
| C=CC(=O)N1CCC(c2ccc(C(N)=O)c(Nc3ccc(C)nc3)n2)CC1 [Compound 49] | < 0.1 µM | – |
| C/C=C/C(=O)N1CCC(c2cnc(Oc3ccc(Oc4cccc(F)c4)cc3)c(C(N)=O)c2)C1 (stereo not shown) [Compound 167, 5-[1-((E)-But-2-enoyl)-pyrrolidin-3-yl]-2-[4-(3-fluoro-phenoxy)-phenoxy]-nicotinamide] | 1 to 5 µM | – |
| NC(=O)c1ccc(C2CCN(C(=O)/C=C/CN3CCN(CCNC(=O)CCCC[C@@H]4SC[C@@H]5NC(=O)N[C@@H]54)CC3)CC2)nc1Oc1ccc(Oc2ccccc2)cc1 [Compound 86, 6-(1-((E)-4-(4-(2-(5-((3aS,4S,6aR)-2-oxohexahydro-1H-thieno[3,4-d]imidazol-4-yl)pentanamido)ethyl)piperazin-1-yl)but-2-enoyl)piperidin-4-yl)-2-(4-phenoxyphenoxy)nicotinamide] | 0.1 to 1 µM | – |
| C=CC(=O)N1CCC(c2ccc(C(N)=O)c(Nc3ccc(C(=O)N4CCN(C(=O)CCCCNC(=O)OC(C)(C)C)CC4)cc3)n2)CC1 [Compound 19] | < 0.1 µM | – |
| C=CC(=O)N[C@H]1CCN(c2ccc(C(N)=O)c(Nc3ccc(N4CC(C)OC(C)C4)cc3)n2)C1 (stereo partly drawn) [Compound 33, 6-((S)-3-Acryloylamino-pyrrolidin-1-yl)-2-[4-(2,6-dimethyl-morpholin-4-yl)-phenylamino]-nicotinamide] | < 0.1 µM | – |
| C=CC(=O)N1CCC(c2ccc(C(N)=O)c(Oc3ccc(Oc4cccc(C#N)c4)cc3)n2)C1 (stereo not shown) [Compound 185, 6-(1-Acryloylpyrrolidin-3-yl)-2-(4-(3-cyanophenoxy)phenoxy)nicotinamide] | < 0.1 µM | – |
| C=CC(=O)N1CCC[C@H](c2cnc(Oc3ccc(Oc4ccccc4)cc3)c(C(N)=O)c2)C1 [Compound 124, (R)-5-(1-acryloylpiperidin-3-yl)-2-(4-phenoxyphenoxy)nicotinamide] | < 0.1 µM | – |
| C=CC(=O)N1CCC(F)(CNc2ncc(C(N)=O)c(Oc3ccc(Oc4ccccc4)cc3)n2)CC1 [Compound 194, 2-(((1-acryloyl-4-fluoropiperidin-4-yl)methyl)amino)-4-(4-phenoxyphenoxy)pyrimidine-5-carboxamide] | – | 0.1 to 1 µM |
| C=CC(=O)N[C@H]1CCN(c2ccc(C(N)=O)c(NC3CCOCC3)n2)C1 [Compound 165, 6-((S)-3-Acryloylamino-pyrrolidin-1-yl)-2-(tetrahydro-pyran-4-ylamino)-nicotinamide] | > 5 µM | – |
| C=CC(=O)N[C@H]1CCN(c2ccc(C(N)=O)c(Oc3ccc(OCc4ccccc4)cc3)n2)C1 [Compound 90, (S)-6-(3-acrylamidopyrrolidin-1-yl)-2-(4-(benzyloxy)phenoxy)nicotinamide] | 0.1 to 1 µM | – |
| N#CN1CC2(CC(Nc3ncc(C(N)=O)c(Oc4ccc(Oc5ccccc5)cc4)n3)C2)C1 [Compound 242, 2-[(2-cyano-2-azaspiro[3.3]heptan-6-yl]amino)-4-(4-phenoxyphenoxy)pyrimidine-5-carboxamide] | > 5 µM | – |
| C=CC(=O)N[C@H]1CCN(c2ccc(C(N)=O)c(Nc3cncc(F)c3)n2)C1 [Compound 51, 6-((S)-3-Acryloylamino-pyrrolidin-1-yl)-2-(5-fluoro-pyridin-3-ylamino)-nicotinamide] | < 0.1 µM | – |
| C=CC(=O)N[C@H]1CCN(c2nc(Nc3ccc(N4CC(C)OC(C)C4)c(F)c3)c(C(N)=O)cc2F)C1 (stereo partly drawn) [Compound 181, 6-((S)-3-Acryloylamino-pyrrolidin-1-yl)-2-[4-(2,6-dimethyl-morpholin-4-yl)-3-fluoro-phenylamino]-5-fluoro-nicotinamide] | < 0.1 µM | – |
| C=CC(=O)N[C@@H]1CCCN(c2nc(Nc3ccc(N4CCN(C)CC4)cc3)c(C(N)=O)cc2F)C1 [Compound 226, (R)-3-Acryloylamino-3′-fluoro-6′-[4-(4-methyl-piperazin-1-yl)-phenylamino]-3,4,5,6-tetrahydro-2H-[1,2′]bipyridinyl-5′-carboxylic acid amide] | < 0.1 µM | – |

| Compound | IC50 [1] | IC50 |
| --- | --- | --- |
| C=CC(=O)N1CC=C(c2ccc(C(N)=O)c(Oc3ccc(Oc4ccccc4)cc3)n2)C1 [Compound 88, 6-(1-acryloyl-2,5-dihydro-1H-pyrrol-3-yl)-2-(4-phenoxyphenoxy)nicotinamide] | 0.1 to 1 µM | – |
| C=CC(=O)N1CCC(c2ccc(C(N)=O)c(Oc3ccc(NC(=O)c4ccccc4)cc3)n2)C1 (stereo not shown) [Compound 99, 6-(1-acryloylpyrrolidin-3-yl)-2-(4-benzamidophenoxy)nicotinamide] | 1 to 5 µM | – |
| C=CC(=O)N1CCC(c2cnc(C(N)=O)nc2)C1 (stereo not shown) [Compound 155] | > 5 µM | – |
| N#CN1CCC[C@H](c2cnc(Oc3ccc(Oc4ccc(F)cc4F)cc3)c(C(N)=O)c2)C1 [Compound 248, 5-[(3R)-1-cyanopiperidin-3-yl]-2-[4-(2,4-difluorophenoxy)phenoxy]pyridine-3-carboxamide] | 1 to 5 µM | – |
| C=CC(=O)N[C@H]1CCN(c2ccc(C(N)=O)c(Nc3ccc(NC(=O)C(C)(C)C)cc3)n2)C1 [Compound 59, 6-((S)-3-Acryloylamino-pyrrolidin-1-yl)-2-[4-(2,2-dimethyl-propionylamino)-phenylamino]-nicotinamide] | 0.1 to 1 µM | – |
| C=CC(=O)N[C@H]1CCN(c2ccc(C(N)=O)c(Nc3ccc(Oc4ccnc(C(=O)NC)c4)cc3)n2)C1 [Compound 36, 6-((S)-3-Acryloylamino-pyrrolidin-1-yl)-2-[4-(2-methylcarbamoyl-pyridin-4-yloxy)-phenylamino]-nicotinamide] | < 0.1 µM | – |
| C=CC(=O)N[C@H]1CCN(c2ccc(C(N)=O)c(Nc3ccc(CCN4CCC(F)(F)C4)cc3)n2)C1 [Compound 24, 6-((S)-3-Acryloylamino-pyrrolidin-1-yl)-2-{4-[2-(3,3-difluoro-pyrrolidin-1-yl)-ethyl]-phenylamino}-nicotinamide] | < 0.1 µM | – |
| C=CC(=O)N1C2CCC1CN(c1ncc(C(N)=O)c(Oc3ccc(Oc4ccccc4)cc3)n1)C2 [Compound 149, 2-(8-Acryloyl-3,8-diaza-bicyclo[3.2.1]oct-3-yl)-4-(4-phenoxy-phenoxy)-pyrimidine-5-carboxylic acid amide] | < 0.1 µM | – |
| N#CN1CCCC(Nc2ncc(C(N)=O)c(Oc3ccc(Oc4ccccc4)cc3)n2)C1 (stereo not shown) [Compound 239, 2-[(1-cyanopiperidin-3-yl)amino]-4-(4-phenoxyphenoxy)pyrimidine-5-carboxamide] | 1 to 5 µM | – |
| N#CN1CCC(Nc2cnc(Oc3ccc(Oc4ccc(F)cc4F)cc3)c(C(N)=O)c2)C1 (stereo not shown) [Compound 250, 5-[(1-cyanopyrrolidin-3-yl)amino]-2-[4-(2,4-difluorophenoxy)phenoxy]pyridine-3-carboxamide] | 1 to 5 µM | – |
| C=CC(=O)N1CC=C(c2ccc(C(N)=O)c(Nc3ccc(C(=O)N4CCCCC4)cc3)n2)CC1 [Compound 28, 1′-Acryloyl-6-[4-(piperidine-1-carbonyl)-phenylamino]-1′,2′,3′,6′-tetrahydro-[2,4′]bipyridinyl-5-carboxylic acid amide] | < 0.1 µM | – |
| C=CC(=O)N1CCC(Nc2ncc(C(N)=O)c(N)n2)C1 (stereo not shown) [Compound 141, 2-(1-Acryloyl-pyrrolidin-3-ylamino)-4-amino-pyrimidine-5-carboxylic acid amide] | 0.1 to 1 µM | – |
| C=CC(=O)N1C[C@@H]2CCC[C@H]1CN(c1ncc(C(N)=O)c(Oc3ccc(Oc4ccccc4)cc3)n1)C2 [Compound 208, 2-((1 S,5R)-9-acryloyl-3,9-diazabicyclo[3.3.2]decan-3-yl)-4-(4-phenoxyphenoxy)pyrimidine-5-carboxamide] | 0.1 to 1 µM | – |
| C=CC(=O)N[C@H]1CCN(c2nc(Oc3ccc(Oc4ccccc4)cc3)c(C(N)=O)cc2F)C1 [Compound 2, 6-((S)-3-Acryloylamino-pyrrolidin-1-yl)-5-fluoro-2-(4-phenoxy-phenoxy)-nicotinamide] | 0.1 to 1 µM | – |
| C=CC(=O)N1CCC(Nc2cnc(Oc3ccc(Oc4ccccc4)cc3)c(C(N)=O)c2)CC1 [Compound 252, 5-(1-Acryloyl-piperidin-4-ylamino)-2-(4-phenoxy-phenoxy)-nicotinamide] | < 0.1 µM | – |
| C=CC(=O)N[C@H]1CCN(c2nc(Nc3ccc(NC(=O)C(C)(C)C)cc3)ccc2C(N)=O)C1 [Compound 156, 2-((S)-3-Acryloylamino-pyrrolidin-1-yl)-6-[4-(2,2-dimethyl-propionylamino)-phenylamino]-nicotinamide] | < 0.1 µM | – |
| C=CC(=O)NC1CCCN(c2cnc(Oc3ccc(Oc4cccc(F)c4)cc3)c(C(N)=O)c2)C1 (stereo not shown) [Compound 220, 3-Acryloylamino-6′-[4-(3-fluoro-phenoxy)-phenoxy]-3,4,5,6-tetrahydro-2H-[1,3′]bipyridinyl-5′-carboxylic acid amide] | 1 to 5 µM | – |
| C=CC(=O)N1CCC(Nc2ncc(C(N)=O)c(Oc3ccc(Oc4ccccc4)cc3)n2)CC12CCC2 (stereo not shown) [Compound 175, 2-(5-Acryloyl-5-aza-spiro[3.5]non-8-ylamino)-4-(4-phenoxy-phenoxy)-pyrimidine-5-carboxylic acid amide] | 0.1 to 1 µM | – |
